Results published in US20240075087A1, “COMPOSITIONS AND METHODS COMPRISING HEMP EXTRACT FOR THE TREATMENT OF ANIMALS IN NEED” (Portland Technology Holdings LLC, priority 2021, published 2024).
Converted amounts (≈) assume the structure as drawn. Where a name gives a salt, the structure may show the parent alone.

Key:
[1] = test system: HMPOS osteosarcoma cell line; assay: 48 hours MTT proliferation assay, HMPOS; format: cell-based, canine; conditions: pure compound
Experimental: (§1) 3-(4,5-Dimethylthaizol-2-yl)-2,5-diphenyltetrazolium bromide (MTT) assays are performed on all previously described cell lines; CMT12, HMPOS, D17, Abrams and 17-71. […] Cells are treated with vehicle (methanol or ethanol/DMSO mix) or various concentrations of the CBD, CBDA or CBD-rich hemp extract ranging from 0.42 to 20 μg/mL in serial dilution for 48 hours. MTT assays are performed after 48 hours of treatment by adding 20 μL of MTT dye ([…] filtered 5 mg/mL in phosphate-buffered saline [PBS]) to each well and incubating at 37° C. in 5% CO2 for 2 hours. The media is then aspirated, washed once with 200 μL of PBS and then solubilized in 200 μL of ethanol. Immediate analysis of the optical density of each well is performed using a spectrophotometric plate reader (Epoch; Biotek, Winooski, Vermont) at a wavelength of 570 nm as previously described (e.g., Vega-Avila E and Pugsley M K, An overview of colorimetric assay methods used to assess survival or proliferation of mammalian cells, Proc West Pharmacol Soc., 2011, 54, pp. 10-14 which is incorporated herein by reference in its entirety). The percent proliferating cells of control for each concentration is averaged and reported as a mean+/—SD from triplicate wells over three experiments.
(§2) For CBD, CBDA and hemp extract concentrations needed to obtain a 50% inhibition of cell proliferation (IC50) are then calculated across experiments by Probit analysis using XLFit5 software (IDBS, Guildford, United Kingdom) for reporting the results for each cell line.

CYP2B11 = target: T1, CYP2B11 (Canis lupus familiaris, UniProt P24460); assay: CYP2B11 activity inhibition in pooled dog liver microsomes; conditions: CYP2B11; no preincubation vs 20 min preincubation; 10 μM
T1 sequence (P24460 1-494): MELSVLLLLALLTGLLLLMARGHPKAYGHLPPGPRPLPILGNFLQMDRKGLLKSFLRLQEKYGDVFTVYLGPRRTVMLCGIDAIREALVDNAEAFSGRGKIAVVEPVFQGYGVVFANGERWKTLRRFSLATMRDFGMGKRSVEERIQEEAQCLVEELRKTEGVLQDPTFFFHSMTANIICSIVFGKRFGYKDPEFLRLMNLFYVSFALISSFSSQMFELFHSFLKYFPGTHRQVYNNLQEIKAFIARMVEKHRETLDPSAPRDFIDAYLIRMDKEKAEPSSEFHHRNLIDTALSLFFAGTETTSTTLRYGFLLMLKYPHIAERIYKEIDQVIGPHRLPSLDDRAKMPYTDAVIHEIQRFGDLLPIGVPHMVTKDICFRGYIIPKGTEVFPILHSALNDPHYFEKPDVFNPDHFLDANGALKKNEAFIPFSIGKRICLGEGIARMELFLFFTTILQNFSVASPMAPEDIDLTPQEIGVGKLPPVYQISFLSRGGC
Experimental: (§3) Inhibition potency (i.e. IC50) is determined by measuring the decrement in metabolism of P450-specific marker activities in pooled dog liver microsomes with increasing concentrations of CBD, CBDA, and hemp extracts. P450-specific markers include bupropion 6-hydroxylation (CYP2B11), dextromethorphan 0-demethylation (CYP2D15) and omeprazole sulfoxidation (CYP3A12). IC50 values are determined both with and without preincubation of liver microsomes with potential inhibitor to evaluate whether there is mechanism-based time-dependent inhibition.
(§4) The following parameters are assessed: (1) the rates of CBD and CBDA metabolism by dog liver microsomes and by 11 recombinant canine P450 enzymes; (2) the predicted percent contribution of each P450 to total CBD and CBDA metabolism in dog liver; and (3) IC50 values for inhibition of CYP2B11, CYP2D15 and CYP3A12 metabolism in dog liver, both with and without inhibitor preincubation.
(§5) FIGS. 13-15 show activity assays for CYP3A12 (FIGS. 13A and 13B), CYP2B11 (FIGS. 14A and 14B), and CYP2D15 (FIGS. 15A and 15B). Assays using either no preincubation (FIGS. 13A, 14A, and 15A) or 20 minutes of preincubation (FIGS. 13B, 14B, and 15B) were performed.

CYP3A12 = CYP3A12 (Canis lupus familiaris, UniProt P24463); assay: CYP3A12 activity inhibition in pooled dog liver microsomes; conditions: CYP3A12; no preincubation vs 20 min preincubation; 10 μM
Experimental: as §3, §4, §5

[2] = test system: 17-71 B cell lymphoma cell line; assay: 48 hours MTT proliferation assay, 17-71; format: cell-based, canine; conditions: pure compound
Experimental: as §1, §2

CYP2D15 = target: T2, CYP2D15 (Canis lupus familiaris, UniProt Q29473); assay: CYP2D15 activity inhibition in pooled dog liver microsomes; format: in vitro ADME; conditions: no preincubation vs 20 min preincubation, 10 μM
T2 construct: P450-specific marker activities in pooled dog liver microsomes; from tissue; host or cells: pooled dog liver microsomes
T2 sequence (Q29473 1-500): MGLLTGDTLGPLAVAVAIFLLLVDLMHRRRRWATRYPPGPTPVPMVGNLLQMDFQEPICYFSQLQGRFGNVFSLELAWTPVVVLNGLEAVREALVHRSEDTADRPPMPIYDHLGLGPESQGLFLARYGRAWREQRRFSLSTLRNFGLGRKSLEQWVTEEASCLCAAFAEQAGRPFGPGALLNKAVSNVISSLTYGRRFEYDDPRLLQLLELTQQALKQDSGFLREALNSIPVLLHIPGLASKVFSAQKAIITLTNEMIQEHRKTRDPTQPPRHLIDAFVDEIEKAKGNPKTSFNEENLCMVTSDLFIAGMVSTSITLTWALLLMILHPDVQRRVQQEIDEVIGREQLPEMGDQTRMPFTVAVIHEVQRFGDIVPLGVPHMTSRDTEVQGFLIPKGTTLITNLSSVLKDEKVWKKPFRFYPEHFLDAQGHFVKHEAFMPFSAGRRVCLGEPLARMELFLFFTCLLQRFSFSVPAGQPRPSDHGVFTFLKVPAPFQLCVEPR

[3] = test system: Abrams osteosarcoma cell line; assay: 48 hours MTT proliferation assay, Abrams; format: cell-based, canine; conditions: pure compound
Experimental: as §1, §2

[4] = test system: D17 osteosarcoma cell line; assay: 48 hours MTT proliferation assay, D17; format: cell-based, canine; conditions: pure compound
Experimental: as §1, §2

[5] = test system: CMT12 mammary gland carcinoma cell line; assay: 48 hours MTT proliferation assay, CMT12; format: cell-based, canine; conditions: pure compound
Experimental: as §1, §2

canine P-glycoprotein = target: T3, canine P-glycoprotein (Canis lupus familiaris, UniProt C0KKU9); assay: P-glycoprotein competitive transport assay (rhodamine 123, MDCK PGP cells); format: in vitro ADME; conditions: rhodamine competition, CBD at 1000 ng/mL
T3 construct: host or cells: MDCK PGP cells (canine P-gp expressing cell line)
Experimental: In this second study, a competitive P-gp substrate assay incorporating a canine P-gp expressing cell line is used to assess each test compound's ability to compete with the P-gp substrate rhodamine 123. Each concentration is tested on 3 separate days with same-day duplicates. Positive controls and negative controls are included in each run.
Results for each concentration of test compound evaluated are reported as non-P-gp substrate, weak P-gp substrate, moderate P-gp substrate, or strong P-gp substrate. The concentrations for CBD and CBDA are as follows: 10 ng/mL, 100 ng/mL and 1,000 ng/mL.
A competitive P-gp substrate assay using a canine P-gp expressing cell line was used to assess CBDA and/or CBD as a substrate for canine P-glycoprotein.

[6] = Pharmacokinetics of three oral forms of CBD-rich hemp extract in dogs (serum LC-MS/MS); conditions: oral hemp extract forms 2 mg/kg CBD/CBDA
Description: The pharmacokinetics of cannabidiol (CBD), cannabidiolic acid (CBDA), Δ9-tetrahydrocannabinol (THC), and tetrahydrocannabinolic acid (THCA) on three oral forms of CBD-rich hemp extract that contained near equal amounts of CBD and CBDA, and minor amounts (<0.3% by weight) of THC and THCA in dogs were studied. The metabolized psychoactive component of THC, 11-hydroxy-Δ9-tetrahydrocannabinol (11-OH-THC) and CBD metabolites 7-hydroxycannabidiol (7-OH-CBD) and 7-nor-7-carboxycannabidiol (7-COOH-CBD) were also assessed to better understand the pharmacokinetic differences between three formulations regarding THC and CBD, and their metabolism. Six purpose-bred female beagles were utilized for study purposes, each having an initial 7-point, 24-h pharmacokinetic study performed using a dose of 2 mg/kg body weight of CBD/CBDA (˜1 mg/kg CBD and ˜1 mg/kg CBDA). Dogs were then dosed every 12 h for 2 weeks and had further serum analyses at weeks 1 and 2, 6 h after the morning dose to assess serum cannabinoids. Serum was analyzed for each cannabinoid or cannabinoid metabolite using liquid chromatography and tandem mass spectroscopy (LC-MS/MS).

D17 cell line = conditions: 48 hours MTT
Experimental: (§6) CMT12, 17-71 and D17 cells are plated at a density of 2500 cells per well in 96-well tissue culture-treated plates (Laboratory Product Sales, Rochester, New York). All cell lines are treated with identical concentrations of the pure CBD ([…]) and various concentrations of doxorubicin or vincristine. The concentration of doxorubicin varies between cell lines in order to achieve between 20% and 80% proliferation inhibition. The cell lines are treated with serial dilutions of doxorubicin as follows; CMT12 and D17 (0.067-2 μM) and 17-71 (0.0167-0.5 μM). Methanol is used as a vehicle control for all CBD treatments and sterile water for doxorubicin and vincristine at the highest doses used to represent the vehicle control treated wells. Cells are then incubated for 48 hours prior to performing MTT assays, as previously described. Wells treated with the vehicle control are considered to represent 100% proliferating cells in triplicate over three experiments. Percent viable cells for each specific combination are averaged and reported as mean percent proliferation+/— SD for further CI evaluation.
(§7) Raw data from MTT proliferation assays and trypan blue exclusion assays (individual optical density of each well) are normalized to the vehicle control treatment for each cell line, considered to represent 100% proliferating cells (single or combined treatment). The percent proliferating cells is determined by comparing optical density readings or live counts, respectively, of treatment wells at each concentration compared with vehicle control wells in each cell line.
(§8) The compound interactions of chemotherapy and CBD treatment in the CI studies are calculated by multiple drug effect analysis using Compusyn software (v.2; Compusyn Inc, Paramus, New Jersey) which employs the median equation principle according to the methodology described by Chou and Talalay to determine a CI value by the Formula I (Chou T C, Drug combination studies and their synergy quantification using the Chou-Talalay method, Cancer Res., 2010, 70(2), pp. 440-446, which is incorporated herein by reference in its entirety):
(§9) where (D)1 and (D)2 are the doses of both compounds in combination and (Dx)1 and (Dx)2 are the doses of each compound alone at x percent of inhibition. CI values≤0.9 indicate synergism, a CI value>0.9 and <1.1 indicates an additive effect, and CI values≥1.1 indicate antagonism.

CMT12 cell line = conditions: 48 hours MTT
Experimental: as §6, §7, §8, §9

T3 sequence (C0KKU9 1-1281): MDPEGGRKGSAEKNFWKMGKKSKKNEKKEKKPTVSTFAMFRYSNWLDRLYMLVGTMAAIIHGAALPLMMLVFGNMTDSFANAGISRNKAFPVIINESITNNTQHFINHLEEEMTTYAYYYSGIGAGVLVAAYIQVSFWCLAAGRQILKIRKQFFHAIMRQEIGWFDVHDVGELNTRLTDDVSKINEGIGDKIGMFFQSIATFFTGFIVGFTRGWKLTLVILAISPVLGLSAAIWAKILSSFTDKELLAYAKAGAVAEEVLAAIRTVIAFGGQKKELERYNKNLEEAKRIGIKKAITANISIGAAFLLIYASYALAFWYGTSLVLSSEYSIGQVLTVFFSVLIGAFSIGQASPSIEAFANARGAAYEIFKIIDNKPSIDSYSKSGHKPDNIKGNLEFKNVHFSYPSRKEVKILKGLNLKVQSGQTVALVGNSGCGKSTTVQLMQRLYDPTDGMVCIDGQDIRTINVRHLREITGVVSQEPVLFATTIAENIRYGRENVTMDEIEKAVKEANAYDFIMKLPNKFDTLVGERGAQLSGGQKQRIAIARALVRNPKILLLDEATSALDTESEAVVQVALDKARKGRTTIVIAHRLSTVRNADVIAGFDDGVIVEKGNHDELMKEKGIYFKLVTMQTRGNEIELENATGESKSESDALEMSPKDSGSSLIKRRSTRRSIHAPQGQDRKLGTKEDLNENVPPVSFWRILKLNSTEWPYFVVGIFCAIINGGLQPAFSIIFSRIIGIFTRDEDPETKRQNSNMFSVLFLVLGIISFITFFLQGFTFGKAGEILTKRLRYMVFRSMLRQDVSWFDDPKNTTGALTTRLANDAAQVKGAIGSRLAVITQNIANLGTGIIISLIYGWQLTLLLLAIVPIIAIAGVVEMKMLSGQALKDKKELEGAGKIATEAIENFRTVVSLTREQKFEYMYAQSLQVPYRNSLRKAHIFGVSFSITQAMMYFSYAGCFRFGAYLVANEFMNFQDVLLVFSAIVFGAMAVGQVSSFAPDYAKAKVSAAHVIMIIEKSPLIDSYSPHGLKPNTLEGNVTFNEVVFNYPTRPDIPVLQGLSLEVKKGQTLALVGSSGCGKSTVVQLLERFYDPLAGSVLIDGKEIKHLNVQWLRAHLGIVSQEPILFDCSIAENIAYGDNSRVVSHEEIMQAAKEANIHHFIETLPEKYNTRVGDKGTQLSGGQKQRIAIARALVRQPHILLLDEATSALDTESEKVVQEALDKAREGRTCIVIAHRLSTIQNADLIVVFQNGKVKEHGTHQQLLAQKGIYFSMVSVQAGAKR
Chain of CYP3A12 (P24463 whole entry): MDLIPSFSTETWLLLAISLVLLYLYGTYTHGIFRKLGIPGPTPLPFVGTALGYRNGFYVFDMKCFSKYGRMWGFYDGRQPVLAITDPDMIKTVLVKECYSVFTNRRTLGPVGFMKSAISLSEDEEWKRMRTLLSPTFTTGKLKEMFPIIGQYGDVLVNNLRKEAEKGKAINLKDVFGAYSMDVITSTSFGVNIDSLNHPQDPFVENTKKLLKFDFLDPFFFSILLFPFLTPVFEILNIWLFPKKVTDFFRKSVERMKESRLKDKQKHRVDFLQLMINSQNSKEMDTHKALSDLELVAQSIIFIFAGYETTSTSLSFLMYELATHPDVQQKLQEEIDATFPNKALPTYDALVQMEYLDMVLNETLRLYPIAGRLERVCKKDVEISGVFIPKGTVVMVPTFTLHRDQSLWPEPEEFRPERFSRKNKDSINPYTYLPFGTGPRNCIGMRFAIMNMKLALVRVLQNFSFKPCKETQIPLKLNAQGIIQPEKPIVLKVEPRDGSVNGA

C=C(C)[C@@H]1CCC(C)=C[C@H]1c1c(O)cc(CCCCC)c(C(=O)O)c1O [CBDA, cannabidiolic acid]
IC50 (Probit) [1]: could not be calculated because of lack of growth inhibition | concentrations that significantly diminished proliferation vs vehicle control ([1]; P<0.05): 20 µg/mL | time-dependent inhibition (TDI) (CYP2B11): did not show TDI | time-dependent inhibition (TDI) (CYP3A12): did not show TDI | IC50 ([2]; Canis lupus familiaris, B-cell, read-out: IC50 (Probit)): 15.1 µg/mL (≈ 42.1 µM) | concentrations that significantly diminished proliferation vs vehicle control ([2]; P<0.05): ≥ 5 µg/mL | time-dependent inhibition (TDI) (CYP2D15): did not show TDI | IC50 (Probit) [3]: could not be calculated because of lack of growth inhibition | concentrations that significantly diminished proliferation vs vehicle control ([3]; P<0.05): 20 µg/mL | IC50 (Probit) [4]: could not be calculated because of lack of growth inhibition | concentrations that significantly diminished proliferation vs vehicle control ([4]; P<0.05): 20 µg/mL | IC50 (Probit) [5]: could not be determined since 50% growth inhibition is not achieved in the assay | concentrations that significantly diminished proliferation vs vehicle control ([5]; P<0.05): ≥ 10 µg/mL

N.N.O=C([O-])C1(C(=O)[O-])CCC1.[Pt+2] [Carboplatin]
Mean MFI ratio compound:vehicle (canine P-glycoprotein): 0.74 | MFI in MDCK PGP cells (canine P-glycoprotein; rhodamine alone 215): 160

CCCCCc1cc(O)c2c(c1)OC(C)(C)[C@@H]1CCC(C)=C[C@@H]21 [THC, delta-9-tetrahydrocannabinol]
THC serum concentration [6]: below the quantitation limit of the assay for nearly all samples

COc1cccc2c1C(=O)c1c(O)c3c(c(O)c1C2=O)C[C@@](O)(C(=O)CO)C[C@@H]3O[C@H]1C[C@H](N)[C@H](O)[C@H](C)O1 [doxorubicin, doxorubicin hydrochloride]
inhibitory concentrations from IC20-IC80 (D17 cell line; doxorubicin alone): 0.5 to 2 µM | inhibitory concentrations from IC20-IC80 (CMT12 cell line; doxorubicin alone): 0.5 to 2 µM

CC[C@]1(O)C[C@H]2CN(CCc3c([nH]c4ccccc34)[C@@](C(=O)OC)(c3cc4c(cc3OC)N(C=O)[C@H]3[C@@](O)(C(=O)OC)[C@H](OC(C)=O)[C@]5(CC)C=CCN6CC[C@]43[C@@H]65)C2)C1 [vincristine, vincristine sulfate]
IC20-IC80 values (D17 cell line; vincristine alone): 0.0017 to 0.0068 µM | IC20-IC80 values (CMT12 cell line; vincristine alone): 0.0017 to 0.0068 µM
